{"source": "patent US10921312B2", "about": "(priority 2014, dated 2021)", "key": {"[1]": {"tested_on": "iCell® neurons (human induced pluripotent stem cell-derived neurons)", "format": "cell-based"}, "Neuro2A cells": {"tested_on": "Neuro2A cells", "format": "cell-based"}}, "note": "Entries after “also recorded” stand apart in the source; their conditions may differ."}
{"substance": "GT1b", "values": [{"measurement": "increase of sensitivity to neurotoxin polypeptide", "setting": "[1]", "result": "~7", "unit": "fold"}, {"measurement": "increase in sensitivity to neurotoxin", "setting": "Neuro2A cells", "result": "did not exhibit a comparable increase in sensitivity; also recorded: no increase in sensitivity"}]}
